Experiments:
[1] = molecular target: T1, Mcl-1/Bim interaction, recombinant human Mcl-1 (171-327) (Homo sapiens, UniProt Q07820); assay: Cell free Mcl-1: Bim Affinity Assay (Mcl-1 HTRF); type: binding
T1 construct: made in house
In short: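 Compounds were mixed with the protein and a biotinylated Bim peptide spanning human residues 51-76. Plates were left overnight, then TR-FRET signal was measured. A four-parameter sigmoidal model applied to duplicate competition data gave IC50.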

[2] = test system: OPM-2 human multiple myeloma cell line; assay: Cell Viability Assay (OPM-2 10 FBS); type: cell-based; conditions: OPM-2 cells, CellTiter-Glo
In short: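 OPM-2 myeloma cells, 3000/well in medium with 10% FBS, exposed to serially diluted compounds for 16 h at 37° C./5% CO2. Viability read by CellTiter-Glo luminescence; IC50 from 4-parameter logistic fit.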

[3] = cell free Mcl-1:Bim TR-FRET, recombinant human Mcl-1 (171-327)
[4] = Homo sapiens, OPM-2, 16 h, 16 h
[5] = TR-FRET, 0.1 nM Mcl-1 (171-327), 0.05 nM biotin-Bim (51-76)

T1 sequence (Q07820 171-327): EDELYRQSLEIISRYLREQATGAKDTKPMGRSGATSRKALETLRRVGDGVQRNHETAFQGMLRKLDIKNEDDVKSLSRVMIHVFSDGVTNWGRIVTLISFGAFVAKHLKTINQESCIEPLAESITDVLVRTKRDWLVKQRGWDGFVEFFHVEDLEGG

IC50 [2, 4] [nM] | Compound | IC50 [1, 3] [nM] | IC50 ([2]; 16 h) [nM] | IC50 [1, 5] [nM] | IC50 ([2]; 16 h incubation) [nM]
 | COCCO[C@H]1/C=C/C[C@H](C)[C@H](c2ccccc2)S(=O)(=O)NC(=O)c2ccc3c(c2)N(C[C@@H]2CC[C@H]21)C[C@@]1(CCCc2cc(Cl)ccc21)CO3 (single isomer, unassigned) [Example 671] | 19.8 | 5650 |  | 
 | COC[C@@H](O)C[C@@H]1[C@@H](C)C/C=C/[C@H](O)[C@@H]2CC[C@H]2CN2C[C@@]3(CCCc4cc(Cl)ccc43)COc3ccc(cc32)C(=O)NS1(=O)=O (single isomer, unassigned) [Example 672] | 0.193 | 286 |  | 
 | COC[C@@H](O)C[C@@H]1[C@@H](C)C/C=C/[C@H](O)[C@@H]2CC[C@H]2CN2C[C@@]3(CCCc4cc(Cl)ccc43)COc3ccc(cc32)C(=O)NS1(=O)=O (single isomer, unassigned) [Example 673] | 0.183 | 445 |  | 
 | O=C1NS(=O)(=O)C(c2ccccc2)CC/C=C/[C@H](O)[C@@H]2CC[C@H]2CN2C[C@@]3(CCCc4cc(Cl)ccc43)COc3ccc1cc32 (single isomer, unassigned) [Example 674] | 8.2 | 1090 |  | 
 | O=C1NS(=O)(=O)C(c2ccccc2)CC/C=C/[C@H](O)[C@@H]2CC[C@H]2CN2C[C@@]3(CCCc4cc(Cl)ccc43)COc3ccc1cc32 (single isomer, unassigned) [Example 675] | 0.437 | 480 |  | 
3550 | CC1C(C2CC2)CC=CC(O)C2CCC2CN2CC3(CCCc4cc(Cl)ccc43)COc3ccc(cc32)C(=O)NS1(=O)=O (single isomer, unassigned) [Example 677] | 9.57 |  |  | 
 | COC[C@@H](O)C[C@@H]1[C@@H](C)C/C=C/[C@H](OC)[C@@H]2CC[C@H]2CN2C[C@@]3(CCCc4cc(Cl)ccc43)COc3ccc(cc32)C(=O)NS1(=O)=O (single isomer, unassigned) [Example 679] | 0.429 | 205 |  | 
 | O=C1NS(=O)(=O)C[C@@H](C2CC2)C/C=C/[C@H](O)[C@@H]2CC[C@H]2CN2C[C@@]3(CCCc4cc(Cl)ccc43)COc3ccc1cc32 (single isomer, unassigned) [Example 683] | 2.31 | 2090 |  | 
 | CC[C@H]1C/C=C/[C@H](O)[C@@H]2CC[C@H]2CN2C[C@@]3(CCCc4cc(Cl)ccc43)COc3ccc(cc32)C(=O)NS(=O)(=O)N1 (single isomer, unassigned) [Example 685] | 2.66 | 7180 |  | 
 | CC[C@H]1C/C=C/[C@H](O)[C@@H]2CC[C@H]2CN2C[C@@]3(CCCc4cc(Cl)ccc43)COc3ccc(cc32)C(=O)NS(=O)(=O)N1 (single isomer, unassigned) [Example 686] | 0.597 | 993 |  | 
 | CO[C@H]1/C=C/C[C@H](C)[C@@H](CC(F)(F)F)S(=O)(=O)NC(=O)c2ccc3c(c2)N(C[C@@H]2CC[C@H]21)C[C@@]1(CCCc2cc(Cl)ccc21)CO3 (single isomer, unassigned) [Example 689] | 2.53 | 836 |  | 
 | O=C1NS(=O)(=O)[C@H](c2ccccn2)CC/C=C/[C@H](O)[C@@H]2CC[C@H]2CN2C[C@@]3(CCCc4cc(Cl)ccc43)COc3ccc1cc32 (single isomer, unassigned) [Example 692] | 0.6 | 1520 |  | 
 | O=C1NS(=O)(=O)[C@H](c2ccccn2)CC/C=C/[C@H](O)[C@@H]2CC[C@H]2CN2C[C@@]3(CCCc4cc(Cl)ccc43)COc3ccc1cc32 (single isomer, unassigned) [Example 693] | 0.235 | 742 |  | 
 | O=C1NS(=O)(=O)C[C@@H]2C[C@@H]2/C=C/[C@H](O)[C@@H]2CC[C@H]2CN2C[C@@]3(CCCc4cc(Cl)ccc43)COc3ccc1cc32 (single isomer, unassigned) [Example 784] | 2.69 | 14200 |  | 
 | O=C1NS(=O)(=O)C[C@@H]2C[C@@H]2/C=C/[C@H](O)[C@@H]2CC[C@H]2CN2C[C@@]3(CCCc4cc(Cl)ccc43)COc3ccc1cc32 (single isomer, unassigned) [Example 785] | 3.02 | 16000 |  | 
 | COCCO[C@H]1/C=C/C[C@@H]2C[C@H]2S(=O)(=O)NC(=O)c2ccc3c(c2)N(C[C@@H]2CC[C@H]21)C[C@@]1(CCCc2cc(Cl)ccc21)CO3 (single isomer, unassigned) [Example 786] | 1.03 | 1480 |  | 
 | O=C1NS(=O)(=O)C2CC2CC=CC(O)C2CCC2CN2CC3(CCCc4cc(Cl)ccc43)COc3ccc1cc32 (single isomer, unassigned) [Example 793] | 0.44 | 536 |  | 
 | O=C1NS(=O)(=O)C2CC2CC=CC(O)C2CCC2CN2CC3(CCCc4cc(Cl)ccc43)COc3ccc1cc32 (single isomer, unassigned) [Example 796] | 0.45 | 195 |  | 
 | CO[C@H]1/C=C/C[C@@H]2C[C@H]2S(=O)(=O)NC(=O)c2ccc3c(c2)N(C[C@@H]2CC[C@H]21)C[C@@]1(CCCc2cc(Cl)ccc21)CO3 (single isomer, unassigned) [Example 803] | 1.06 | 804 |  | 

IC50 [2, 4] [nM] | Compound | IC50 [1, 3] [nM] | IC50 ([2]; 16 h) [nM] | IC50 [1, 5] [nM] | IC50 ([2]; 16 h incubation) [nM]
 | CO[C@H]1/C=C/C[C@H]2C[C@@H]2S(=O)(=O)NC(=O)c2ccc3c(c2)N(C[C@@H]2CC[C@H]21)C[C@@]1(CCCc2cc(Cl)ccc21)CO3 (single isomer, unassigned) [Example 804] | 0.658 | 377 |  | 
 | COCCO[C@H]1/C=C/C[C@H]2C[C@@H]2S(=O)(=O)NC(=O)c2ccc3c(c2)N(C[C@@H]2CC[C@H]21)C[C@@]1(CCCc2cc(Cl)ccc21)CO3 (single isomer, unassigned) [Example 805] | 1.06 | 718 |  | 
2760 | O=C1NS(=O)(=O)CC/C=C/C[C@H](O)[C@@H]2CC[C@H]2CN2C[C@@]3(CCCc4cc(Cl)ccc43)COc3ccc1cc32 (single isomer, unassigned) [Example 846] | 2.18 |  |  | 
19700 | O=C1NS(=O)(=O)C/C=C/C2(O)CCOC(C2)C2CCC2CN2CC3(CCCc4cc(Cl)ccc43)COc3ccc1cc32 (single isomer, unassigned) [Example 851] | 1 |  |  | 
7000 | O=C1NS(=O)(=O)CCOC2CCOC(C2)C2CCC2CN2CC3(CCCc4cc(Cl)ccc43)COc3ccc1cc32 (single isomer, unassigned) [Example 878] | 9.46 |  |  | 
616 | CC[C@@H]1CC/C=C\C(=O)[C@@H]2CC[C@H]2CN2C[C@@]3(CCCc4cc(Cl)ccc43)COc3ccc(cc32)C(=O)NS1(=O)=O (single isomer, unassigned) [Example 885] | 18.3 |  |  | 
 | O=C1NS(=O)(=O)CCC[C@]2(O)CCO[C@H](C2)[C@@H]2CC[C@H]2CN2C[C@@]3(CCCc4cc(Cl)ccc43)COc3ccc1cc32 (single isomer, unassigned) [Example 901] | 0.568 | 5500 |  | 
 | O=C1NS(=O)(=O)C/C=C/[C@]2(O)CCO[C@@H](C2)[C@@H]2CC[C@H]2CN2C[C@@]3(CCCc4cc(Cl)ccc43)COc3ccc1cc32 (single isomer, unassigned) [Example 918] | 2.75 | 15100 |  | 
 | C[C@@H]1CS(=O)(=O)NC(=O)c2ccc3c(c2)N(C[C@@H]2CC[C@H]2[C@@H]2C[C@H](CCO2)O1)C[C@@]1(CCCc2cc(Cl)ccc21)CO3 (single isomer, unassigned) [Example 921] | 2.09 | 9160 |  | 
 | C[C@@H]1CS(=O)(=O)NC(=O)c2ccc3c(c2)N(C[C@@H]2CC[C@H]2[C@@H]2C[C@H](CCO2)O1)C[C@@]1(CCCc2cc(Cl)ccc21)CO3 (single isomer, unassigned) [Example 922] | 0.975 | 2400 |  | 
 | C[C@H]1/C=C/[C@H](O)[C@@H]2CC[C@H]2CN2C[C@@]3(CCCc4cc(Cl)ccc43)COc3ccc(cc32)C(=O)NS(=O)(=O)[C@@H](C)C1 (single isomer, unassigned) [Example 1021] |  |  | 9.09 | 27000
 | C[C@@H]1/C=C/[C@H](O)[C@@H]2CC[C@H]2CN2C[C@@]3(CCCc4cc(Cl)ccc43)COc3ccc(cc32)C(=O)NS(=O)(=O)[C@@H](C)C1 (single isomer, unassigned) [Example 1022] |  |  | 23.5 | 22700
 | CC[C@@H]1C[C@@H](C)/C=C/[C@H](O)[C@@H]2CC[C@H]2CN2C[C@@]3(CCCc4cc(Cl)ccc43)COc3ccc(cc32)C(=O)NS1(=O)=O (single isomer, unassigned) [Example 1023] |  |  | 0.307 | 501
 | CC[C@@H]1C[C@H](C)/C=C/[C@H](O)[C@@H]2CC[C@H]2CN2C[C@@]3(CCCc4cc(Cl)ccc43)COc3ccc(cc32)C(=O)NS1(=O)=O (single isomer, unassigned) [Example 1024] |  |  | 0.296 | 414
 | CC[C@@H]1C[C@@H](C)/C=C/[C@H](OCCOC)[C@@H]2CC[C@H]2CN2C[C@@]3(CCCc4cc(Cl)ccc43)COc3ccc(cc32)C(=O)NS1(=O)=O (single isomer, unassigned) [Example 1025] |  |  | 0.411 | 141
 | CC[C@@H]1C[C@H](C)/C=C/[C@H](OCCN2CCOCC2)[C@@H]2CC[C@H]2CN2C[C@@]3(CCCc4cc(Cl)ccc43)COc3ccc(cc32)C(=O)NS1(=O)=O (single isomer, unassigned) [Example 1027] |  |  | 0.945 | 218
 | O=C1NS(=O)(=O)[C@@H]2COC[C@H]2C/C=C/[C@H](O)[C@@H]2CC[C@H]2CN2C[C@@]3(CCCc4cc(Cl)ccc43)COc3ccc1cc32 (single isomer, unassigned) [Example 1030] |  |  | 0.195 | 271
 | CO[C@H]1/C=C/C[C@@H]2COC[C@H]2S(=O)(=O)NC(=O)c2ccc3c(c2)N(C[C@@H]2CC[C@H]21)C[C@@]1(CCCc2cc(Cl)ccc21)CO3 (single isomer, unassigned) [Example 1032] |  |  | 0.422 | 575
